Drawing on patent US9682995B2, “Amino-substituted isothiazoles” (BAYER PHARMA AKTIENGESELLSCHAFT, priority 2013, dated 2017), this text covers IC50 for 31 compounds.

Experiment [1] concerns the target CDK2/CycE (Homo sapiens (Human), UniProt P24941). Briefly: CDK2/CycE kinase assay (TR-FRET). The conditions noted are these: 10 μM ATP; read-out: CDK2 avg (IC50 [mol/l]). It is filed as biochemical. The method in brief:
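GST-tagged human CDK2 and GST-CycE from Sf9 cells (~130 ng/ml) were preincubated with compound for 15 min at 22 °C. Reaction with 10 μM ATP and 0.75 μM biotinylated peptide (final) ran 25 min at 22 °C, pH 8.0. Phospho-peptide was read by TR-FRET (665/620 nm ratio, anti-pRB antibody, Eu donor) and normalised to no-enzyme and no-inhibitor controls.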

Experiment [2] addresses human Bub1 (Homo sapiens (Human), UniProt O43683). Briefly: Bub1 kinase assay (TR-FRET). The class given is biochemical. The note with it: 10 μM ATP; read-out: Bub1 avg (IC50 [mol/l]). The method in brief:
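His6-tagged human Bub1 catalytic domain (aa 704-1085, insect-cell expressed, ~200 ng/ml) preincubated with compound 15 min, then reacted 60 min at 22 °C with 10 μM ATP and 1 μM biotinylated peptide (final) in pH 7.5 Tris buffer. Phosphopeptide detected by TR-FRET 665/620 ratio, normalised to no-inhibitor and no-enzyme controls.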

A value given as a limit tells only on which side of the number the result lay.

Sequence of human Bub1 (O43683 704-1085): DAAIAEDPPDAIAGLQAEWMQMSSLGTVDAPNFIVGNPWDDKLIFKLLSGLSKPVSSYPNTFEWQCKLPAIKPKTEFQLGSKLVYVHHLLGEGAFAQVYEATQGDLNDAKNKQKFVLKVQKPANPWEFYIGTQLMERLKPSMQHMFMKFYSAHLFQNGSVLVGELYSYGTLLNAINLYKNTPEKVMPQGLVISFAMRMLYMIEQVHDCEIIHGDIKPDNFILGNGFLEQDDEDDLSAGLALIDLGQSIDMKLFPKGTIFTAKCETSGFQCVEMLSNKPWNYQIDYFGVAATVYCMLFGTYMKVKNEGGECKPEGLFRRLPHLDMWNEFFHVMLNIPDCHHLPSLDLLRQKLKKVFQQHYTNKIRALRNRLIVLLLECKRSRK

For `CCc1ccccc1NC(=O)c1c(C)nsc1Nc1ccncn1` [Example 2, N-(2-Ethylphenyl)-3-methyl-5-(pyrimidin-4-ylamino)-1,2-thiazole-4-carboxamide], the IC50 in experiment [1] and in experiment [2] was greater than 20 µM each time.

For `CCc1ccccc1NC(=O)c1c(C)nsc1Nc1ncccc1C(F)(F)F` [Example 3, N-(2-Ethylphenyl)-3-methyl-5-{[3-(trifluoromethyl)pyridin-2-yl]amino}-1,2-thiazole-4-carboxamide], the IC50 in experiment [1] and in experiment [2] was greater than 20 µM throughout.

For the compound `CCc1ccccc1NC(=O)c1c(C)nsc1Nc1cc(C#N)ccn1` [Example 4, 5-[(4-Cyanopyridin-2-yl)amino]-N-(2-ethylphenyl)-3-methyl-1,2-thiazole-4-carboxamide], the IC50 in experiment [1] and in experiment [2] was greater than 20 µM throughout.

Regarding `CCc1ccccc1NC(=O)c1c(C)nsc1Nc1nccc(-c2ccccc2)n1` [Example 5, N-(2-Ethylphenyl)-3-methyl-5-[(4-phenylpyrimidin-2-yl)amino]-1,2-thiazole-4-carboxamide], the IC50 in experiment [1] and in experiment [2] was greater than 20 µM in each case.

For `Cc1nsc(Nc2nc3c(C(F)(F)F)ccnc3s2)c1C(=O)Nc1ccc(F)c(F)c1` [Example 58, N-(3,4-Difluorophenyl)-3-methyl-5-{[7-(trifluoromethyl)[1,3]thiazolo[5,4-b]pyridin-2-yl]amino}-1,2-thiazole-4-carboxamide], the IC50 in experiment [1] and in experiment [2] was greater than 20 µM in each case.

Take `COC(=O)c1cnc(Nc2snc(C)c2C(=O)Nc2ccc(F)c(F)c2)cn1` [Example 59, Methyl 5-({4-[(3,4-difluorophenyl)carbamoyl]-3-methyl-1,2-thiazol-5-yl}amino)-pyrazine-2-carboxylate]: the IC50 in experiment [1] and in experiment [2] was greater than 20 µM throughout.

Consider `Cc1nsc(Nc2cnc3cc(C(F)(F)F)ccc3n2)c1C(=O)Nc1ccc(F)c(F)c1` [Example 60, N-(3,4-Difluorophenyl)-3-methyl-5-{[6-(trifluoromethyl)quinoxalin-2-yl]amino}-1,2-thiazole-4-carboxamide], for which the IC50 in experiment [1] and in experiment [2] was greater than 20 µM throughout.

In the case of `Cc1nsc(Nc2cnc3cc(C(F)(F)F)ccc3n2)c1C(=O)Nc1ccc(Cl)c(Cl)c1` [Example 61, N-(3,4-Dichlorophenyl)-3-methyl-5-{[6-(trifluoromethyl)quinoxalin-2-yl]amino}-1,2-thiazole-4-carboxamide], the IC50 in experiment [1] and in experiment [2] was greater than 20 µM in each case.

In the case of `Cc1nsc(Nc2ccc(C#N)cn2)c1C(=O)Nc1ccc(Cl)c(Cl)c1` [Example 62, 5-[(5-Cyanopyridin-2-yl)amino]-N-(3,4-dichlorophenyl)-3-methyl-1,2-thiazole-4-carboxamide], the IC50 in experiment [1] was 6.5 µM; in experiment [2], greater than 20 µM.

Consider `Cc1nsc(Nc2cncc(-c3ncco3)n2)c1C(=O)Nc1ccc(Cl)c(F)c1` [Example 63, N-(4-Chloro-3-fluorophenyl)-3-methyl-5-{[6-(1,3-oxazol-2-yl)pyrazin-2-yl]amino}-1,2-thiazole-4-carboxamide], for which the IC50 in experiment [1] and in experiment [2] was greater than 20 µM in each case.

For the compound `Cc1nsc(Nc2cncc(-n3cccn3)n2)c1C(=O)Nc1ccc(F)c(F)c1` [Example 64, N-(3,4-Difluorophenyl)-3-methyl-5-{[6-(1H-pyrazol-1-yl)pyrazin-2-yl]amino}-1,2-thiazole-4-carboxamide], the IC50 in experiment [1] was 8.4 µM.

Take `Cc1nsc(Nc2cnccn2)c1C(=O)Nc1ccc(F)c(F)c1` [Example 65, N-(3,4-Difluorophenyl)-3-methyl-5-(pyrazin-2-ylamino)-1,2-thiazole-4-carboxamide]: the IC50 in experiment [1] and in experiment [2] was greater than 20 µM each time.

For the compound `COC(=O)c1cncc(Nc2snc(C)c2C(=O)Nc2ccc(F)c(F)c2)n1` [Example 66, Methyl 6-({4-[(3,4-difluorophenyl)carbamoyl]-3-methyl-1,2-thiazol-5-yl}amino)-pyrazine-2-carboxylate], the IC50 in experiment [1] and in experiment [2] was greater than 20 µM throughout.

On to `Cc1nsc(Nc2cncc(-n3cccn3)n2)c1C(=O)Nc1ccc(Cl)c(F)c1` [Example 67, N-(4-Chloro-3-fluorophenyl)-3-methyl-5-{[6-(1H-pyrazol-1-yl)pyrazin-2-yl]amino}-1,2-thiazole-4-carboxamide], for which, in experiment [2], the IC50 is greater than 20 µM.

As for `Cc1nsc(Nc2cnc3cc(C(F)(F)F)ccc3n2)c1C(=O)Nc1ccc(Cl)c(F)c1` [Example 68, N-(4-Chloro-3-fluorophenyl)-3-methyl-5-{[6-(trifluoromethyl)quinoxalin-2-yl]amino}-1,2-thiazole-4-carboxamide], the IC50 in experiment [1] and in experiment [2] was greater than 20 µM each time.

Regarding `Cc1cncc(Nc2snc(C)c2C(=O)Nc2ccc(F)c(F)c2)n1` [Example 69], the IC50 in experiment [1] and in experiment [2] was greater than 20 µM throughout.

Take `CNC(=O)c1cncc(Nc2snc(C)c2C(=O)Nc2ccc(F)c(F)c2)n1` [Example 70, 6-({4-[(3,4-Difluorophenyl)carbamoyl]-3-methyl-1,2-thiazol-5-yl}amino)-N-methylpyrazine-2-carboxamide]: the IC50 in experiment [1] is greater than 20 µM; in experiment [2], 1.7 µM.

Take `Cc1nsc(Nc2cncc(Cl)n2)c1C(=O)Nc1ccc(F)c(F)c1` [Example 71, 5-[(6-Chloropyrazin-2-yl)amino]-N-(3,4-difluorophenyl)-3-methyl-1,2-thiazole-4-carboxamide]: the IC50 in experiment [1] was 8.6 µM; in experiment [2] it was greater than 20 µM.

As to `COc1cncc(Nc2snc(C)c2C(=O)Nc2ccc(F)c(F)c2)n1` [Example 72, N-(3,4-Difluorophenyl)-5-[(6-methoxypyrazin-2-yl)amino]-3-methyl-1,2-thiazole-4-carboxamide], the IC50 in experiment [1] and in experiment [2] was greater than 20 µM throughout.

As for `CCNC(=O)c1cncc(Nc2snc(C)c2C(=O)Nc2ccc(F)c(F)c2)n1` [Example 73, 6-({4-[(3,4-Difluorophenyl)carbamoyl]-3-methyl-1,2-thiazol-5-yl}amino)-N-ethylpyrazine-2-carboxamide], the IC50 is greater than 20 µM in experiment [1] and 6.2 µM in experiment [2].

As to `Cc1nsc(Nc2cnc(Cl)cn2)c1C(=O)Nc1ccc(F)c(F)c1` [Example 74, 5-[(5-Chloropyrazin-2-yl)amino]-N-(3,4-difluorophenyl)-3-methyl-1,2-thiazole-4-carboxamide], the IC50 in experiment [1] and in experiment [2] was greater than 20 µM each time.

On to `CNC(=O)c1cnc(Nc2snc(C)c2C(=O)Nc2ccc(F)c(F)c2)cn1` [Example 75, 5-({4-[(3,4-Difluorophenyl)carbamoyl]-3-methyl-1,2-thiazol-5-yl}amino)-N-methylpyrazine-2-carboxamide], for which the IC50 in experiment [1] and in experiment [2] was greater than 20 µM throughout.

Turning to `CCc1cncc(Nc2snc(C)c2C(=O)Nc2ccc(F)c(F)c2)n1` [Example 76, N-(3,4-Difluorophenyl)-5-[(6-ethylpyrazin-2-yl)amino]-3-methyl-1,2-thiazole-4-carboxamide], the IC50 in experiment [1] and in experiment [2] was greater than 20 µM throughout.

For `Cc1nsc(Nc2cnc(Br)cn2)c1C(=O)Nc1ccc(F)c(F)c1` [Example 77, 5-[(5-Bromopyrazin-2-yl)amino]-N-(3,4-difluorophenyl)-3-methyl-1,2-thiazole-4-carboxamide], the IC50 in experiment [1] and in experiment [2] was greater than 20 µM in each case.

On to `CCNc1cncc(Nc2snc(C)c2C(=O)Nc2ccc(F)c(F)c2)n1` [Example 78, N-(3,4-Difluorophenyl)-5-{[6-(ethylamino)pyrazin-2-yl]amino}-3-methyl-1,2-thiazole-4-carboxamide], for which the IC50 in experiment [1] and in experiment [2] was greater than 20 µM in each case.

Turning to `CCc1cnc(Nc2snc(C)c2C(=O)Nc2ccc(F)c(F)c2)cn1` [Example 79, N-(3,4-Difluorophenyl)-5-[(5-ethylpyrazin-2-yl)amino]-3-methyl-1,2-thiazole-4-carboxamide], the IC50 in experiment [1] and in experiment [2] was greater than 20 µM each time.

On to `CNC(=O)c1ccc(Nc2snc(C)c2C(=O)Nc2ccc(F)c(F)c2)nn1` [Example 80, 6-({4-[(3,4-Difluorophenyl)carbamoyl]-3-methyl-1,2-thiazol-5-yl}amino)-N-methylpyridazine-3-carboxamide], for which the IC50 in experiment [1] and in experiment [2] was greater than 20 µM in each case.

On to `Cc1nsc(Nc2cnc(C(F)(F)F)cn2)c1C(=O)Nc1ccc(F)c(F)c1` [Example 81, N-(3,4-Difluorophenyl)-3-methyl-5-{[5-(trifluoromethyl)pyrazin-2-yl]amino}-1,2-thiazole-4-carboxamide], for which the IC50 in experiment [1] and in experiment [2] was greater than 20 µM throughout.

For the compound `Cc1nsc(Nc2cncc(C(F)(F)F)n2)c1C(=O)Nc1ccc(F)c(F)c1` [Example 82, N-(3,4-Difluorophenyl)-3-methyl-5-{[6-(trifluoromethyl)pyrazin-2-yl]amino}-1,2-thiazole-4-carboxamide], the IC50 in experiment [2] was 15 µM.

As for `Cc1nsc(Nc2ccc(C(F)(F)F)nn2)c1C(=O)Nc1ccc(F)c(F)c1` [Example 83, N-(3,4-Difluorophenyl)-3-methyl-5-{[6-(trifluoromethyl)pyridazin-3-yl]amino}-1,2-thiazole-4-carboxamide], the IC50 in experiment [1] and in experiment [2] was greater than 20 µM throughout.

Consider `COc1ccc(NC(=O)c2c(C)nsc2Nc2cncc(C(F)(F)F)n2)cn1` [Example 84, N-(6-methoxypyridin-3-yl)-3-methyl-5-{[6-(trifluoromethyl)pyrazin-2-yl]amino}-1,2-thiazole-4-carboxamide], for which the IC50 in experiment [1] and in experiment [2] was greater than 20 µM each time.
